The source of these data is ChEMBL document CHEMBL1131221, “2'-C-Methyl analogues of selective adenosine receptor agonists: synthesis and binding studies” (J Med Chem, 1998).

Each structure is given as a SMILES string.

Broadly, the IC50 is the point on the concentration scale where inhibition reaches its midpoint. A word on the Ki: it is a measure of affinity in units of concentration, obtained from inhibition or displacement. In general, inhibition refers to the drop in the measured response relative to a control, in per cent.

Chain of Adenosine receptor A2a (P29274 whole entry): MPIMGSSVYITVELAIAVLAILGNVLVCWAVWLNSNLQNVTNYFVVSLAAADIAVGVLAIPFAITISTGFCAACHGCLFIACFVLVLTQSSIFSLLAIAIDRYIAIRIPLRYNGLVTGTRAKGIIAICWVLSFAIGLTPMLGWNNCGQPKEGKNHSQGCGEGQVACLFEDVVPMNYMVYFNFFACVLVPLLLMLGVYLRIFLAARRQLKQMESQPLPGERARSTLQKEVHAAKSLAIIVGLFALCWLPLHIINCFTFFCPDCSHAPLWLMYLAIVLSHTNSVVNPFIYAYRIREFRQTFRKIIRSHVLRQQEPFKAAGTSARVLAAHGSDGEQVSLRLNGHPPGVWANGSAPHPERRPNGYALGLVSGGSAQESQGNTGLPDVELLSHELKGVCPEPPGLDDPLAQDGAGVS

Tested on in one experiment: not listed separately
The experiment is described as follows: Inhibitory selectivity at Adenosine 2A receptor compared to Adenosine 1 receptor.
Conditions: not given
For `CNC(=O)[C@H]1OC(n2cnc3c(NCc4cccc(I)c4)ncnc32)[C@](C)(O)[C@@H]1O` (stereo partly drawn), the Selectivity came to 6.
`CCNC(=O)[C@H]1O[C@@H](n2cnc3c(N)ncnc32)[C@](C)(O)[C@@H]1O` showed a Selectivity of 1.5.
On the same count and under the same terms, the value for `Nc1nc(Cl)nc2c1ncn2[C@@H]1O[C@H](CO)[C@@H](O)[C@H]1O` was 5.9.

Another experiment is filed under the species Rattus norvegicus. The experiment in a line: (§1) Inhibitory activity against Adenylyl cyclase in rat cortical membranes in the presence of 2''-IB-Ado at concentration 30 nM.
Conditions: not given
Format: functional.
For `OC[C@H]1O[C@@H](n2cnc3c(NC4CCCCC4)ncnc32)[C@H](O)[C@@H]1O`, the Max inhibition worked out at 16%.

For another experiment, the species on record is Rattus norvegicus. The experiment in a line: The compound was tested for the concentration to inhibit 50% of Adenylyl cyclase activity in rat cortical membranes. Format: functional.
Conditions: not given
In the case of `C[C@@]1(O)[C@H](O)[C@@H](CO)O[C@H]1n1cnc2c(NCc3cccc(I)c3)ncnc21`, inhibition was half-maximal at 1.6 nM (IC50).
In the case of `C[C@@]1(O)[C@H](O)[C@@H](CO)O[C@H]1n1cnc2c(NC3CCCC3)nc(Cl)nc21`, inhibition was half-maximal at 13.1 nM (IC50).
The compound `OC[C@H]1O[C@@H](n2cnc3c(NC4CCCCC4)ncnc32)[C@H](O)[C@@H]1O` gave an IC50 of 1.4 nM.
Consider `C[C@H](Cc1ccccc1)Nc1ncnc2c1ncn2[C@@H]1O[C@H](CO)[C@@H](O)[C@@]1(C)O`, for which the IC50 came to 1.6 nM.
Still for that read-out and setting: next, `OC[C@H]1O[C@@H](n2cnc3c(NC4CCCC4)ncnc32)[C@H](O)[C@@H]1O` [N6-CYCLOPENTYLADENOSINE]: 11.6 nM; `C[C@@]1(O)[C@H](O)[C@@H](CO)O[C@H]1n1cnc2c(NC3CCCC3)ncnc21`: 2.3 nM.

Another experiment is filed under the species Rattus norvegicus. Described as §1. Format: functional.
Conditions: not given
Turning to `OC[C@H]1O[C@@H](n2cnc3c(NC4CCCCC4)ncnc32)[C@H](O)[C@@H]1O`, the IC50 worked out at 1.5 nM.

A further experiment has as its target Adenosine receptor A2a (Homo sapiens, UniProt P29274).
Conditions: not given
In the case of `CNC(=O)[C@H]1OC(n2cnc3c(NCc4cccc(I)c4)ncnc32)[C@](C)(O)[C@@H]1O` (stereo partly drawn), affinity was put at a Ki of 1530 nM.
`CCNC(=O)[C@H]1O[C@@H](n2cnc3c(N)ncnc32)[C@](C)(O)[C@@H]1O` displayed a Ki of 218 nM.
With `OC[C@H]1O[C@@H](n2cnc3c(NC4CCCC4)nc(Cl)nc32)[C@H](O)[C@@H]1O`, the Ki came to 580 nM.
In turn, `C[C@H](Cc1ccccc1)Nc1ncnc2c1ncn2[C@@H]1O[C@H](CO)[C@@H](O)[C@@]1(C)O` registered a Ki of 7440 nM.
`OC[C@H]1O[C@@H](n2cnc3c(NC4CCCC4)ncnc32)[C@H](O)[C@@H]1O` [N6-CYCLOPENTYLADENOSINE] displayed a Ki of 385 nM.
Compound `Nc1nc(Cl)nc2c1ncn2[C@@H]1O[C@H](CO)[C@@H](O)[C@H]1O` came in with a Ki of 120 nM.

The species named for a further experiment is Rattus norvegicus. The experiment in a line: Maximal % inhibition of adenylyl cyclase activity in rat cortical membranes at a concentration of 10 uM. Format: functional.
Conditions: not given
In the case of `C[C@@]1(O)[C@H](O)[C@@H](CO)O[C@H]1n1cnc2c(NCc3cccc(I)c3)ncnc21`, the Max inhibition is 10.9%.
Consider `C[C@@]1(O)[C@H](O)[C@@H](CO)O[C@H]1n1cnc2c(NC3CCCC3)nc(Cl)nc21`, for which the Max inhibition is 15.1%.
The same measure, in the same setting: next, `OC[C@H]1O[C@@H](n2cnc3c(NC4CCCCC4)ncnc32)[C@H](O)[C@@H]1O`: 16.2%.
Compound `C[C@H](Cc1ccccc1)Nc1ncnc2c1ncn2[C@@H]1O[C@H](CO)[C@@H](O)[C@@]1(C)O` returned a Max inhibition of 13.7%.
Compound `OC[C@H]1O[C@@H](n2cnc3c(NC4CCCC4)ncnc32)[C@H](O)[C@@H]1O` [N6-CYCLOPENTYLADENOSINE] came in with a Max inhibition of 15.5%.
Take `C[C@@]1(O)[C@H](O)[C@@H](CO)O[C@H]1n1cnc2c(NC3CCCC3)ncnc21`: the Max inhibition turned out to be 11%.

The target in a further experiment is T1, Adenosine receptor A3 (Rattus norvegicus) (UniProt P28647).
T1 sequence (whole entry): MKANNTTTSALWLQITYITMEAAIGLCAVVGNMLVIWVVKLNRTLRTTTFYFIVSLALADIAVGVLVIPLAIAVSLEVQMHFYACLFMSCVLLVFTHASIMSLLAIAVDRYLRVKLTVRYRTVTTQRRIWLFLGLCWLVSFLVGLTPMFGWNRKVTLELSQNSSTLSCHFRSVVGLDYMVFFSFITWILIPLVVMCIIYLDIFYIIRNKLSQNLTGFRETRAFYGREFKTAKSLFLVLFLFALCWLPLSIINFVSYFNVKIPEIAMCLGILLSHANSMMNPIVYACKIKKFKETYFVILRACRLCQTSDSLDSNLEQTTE
The experiment is described as follows: Inhibitory activity against Adenosine A3 receptor by inhibition of [3H](R)-PIA binding to rat testis membranes. The conditions noted are these: Membrane, concentration not given here. Format: cell membranes.
Consider `C[C@]1(O)C(n2cnc3c(N)nc(Cl)nc32)O[C@H](CO)[C@H]1O` (stereo partly drawn), for which the inhibition stood at 10%.
For `C[C@@]1(O)[C@H](O)[C@@H](CO)O[C@H]1n1cnc2c(N)ncnc21`, the inhibition worked out at 0%.
On the same count and under the same terms, the value for `C[C@@]1(O)[C@@H](CO)O[C@@H](n2cnc3c(N)ncnc32)[C@@H]1O` was 8%.

The species entered for the next experiment is Rattus norvegicus. The experiment is described as follows: (§2) Inhibitory activity against Adenylyl cyclase in rat cortical membranes in the presence of 2''-Me-CCPA at concentration 30 nM. Format: functional.
Conditions: not given
On to `OC[C@H]1O[C@@H](n2cnc3c(NC4CCCCC4)ncnc32)[C@H](O)[C@@H]1O`, for which the Max inhibition came to 16.1%.

Tested on in another experiment: not listed separately
The experiment is described as follows: Inhibitory selectivity at Adenosine A3 receptor compared to Adenosine 2A receptor.
Conditions: not given
Compound `CNC(=O)[C@H]1OC(n2cnc3c(NCc4cccc(I)c4)ncnc32)[C@](C)(O)[C@@H]1O` (stereo partly drawn) returned a Selectivity of 0.2.
The compound `CCNC(=O)[C@H]1O[C@@H](n2cnc3c(N)ncnc32)[C@](C)(O)[C@@H]1O` yielded a Selectivity of 2.5.
Consider `Nc1nc(Cl)nc2c1ncn2[C@@H]1O[C@H](CO)[C@@H](O)[C@H]1O`, for which the Selectivity worked out at 26.6.

The species named for a further experiment is Rattus norvegicus. The experiment is described as follows: (§3) Inhibitory activity against Adenylyl cyclase in rat cortical membranes in the presence of 2''-Me-CPA at concentration 50 nM. Format: functional.
Conditions: not given
Regarding `OC[C@H]1O[C@@H](n2cnc3c(NC4CCCCC4)ncnc32)[C@H](O)[C@@H]1O`, the IC50 was 1.4 nM.

Tested on in the next experiment: not listed separately
The experiment is described as follows: Inhibitory selectivity at Adenosine A3 receptor compared to Adenosine 1 receptor.
Conditions: not given
The compound `CNC(=O)[C@H]1OC(n2cnc3c(NCc4cccc(I)c4)ncnc32)[C@](C)(O)[C@@H]1O` (stereo partly drawn) returned a Selectivity of 1.2.
`CCNC(=O)[C@H]1O[C@@H](n2cnc3c(N)ncnc32)[C@](C)(O)[C@@H]1O` returned a Selectivity of 3.8.
With `Nc1nc(Cl)nc2c1ncn2[C@@H]1O[C@H](CO)[C@@H](O)[C@H]1O`, the Selectivity worked out at 158.

The target in the next experiment is T2, Adenosine receptor A1 (Bos taurus, UniProt P28190).
T2 sequence (P28190 whole entry): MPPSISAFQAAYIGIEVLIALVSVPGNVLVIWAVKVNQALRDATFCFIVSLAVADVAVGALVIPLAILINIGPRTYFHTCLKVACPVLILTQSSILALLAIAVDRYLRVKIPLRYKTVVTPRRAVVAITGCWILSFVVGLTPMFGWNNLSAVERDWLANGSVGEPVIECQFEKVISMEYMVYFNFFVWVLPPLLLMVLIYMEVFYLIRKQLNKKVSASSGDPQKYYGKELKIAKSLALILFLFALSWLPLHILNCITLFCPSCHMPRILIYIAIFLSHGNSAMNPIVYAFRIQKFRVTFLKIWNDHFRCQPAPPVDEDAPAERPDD
Conditions: not given
Compound `C[C@@]1(O)[C@H](O)[C@@H](CO)O[C@H]1n1cnc2c(NCc3cccc(I)c3)ncnc21` yielded a Ki of 20.1 nM.
On to `CNC(=O)[C@H]1OC(n2cnc3c(NCc4cccc(I)c4)ncnc32)[C@](C)(O)[C@@H]1O` (stereo partly drawn), for which the affinity corresponds to a Ki of 254 nM.
Still for that read-out and setting: the value for `CNC(=O)[C@H]1O[C@@H](n2cnc3c(NCc4cccc(I)c4)ncnc32)[C@H](O)[C@@H]1O` [IB-MECA] was 33.1 nM.
In turn, `C[C@@]1(O)[C@H](O)[C@@H](CO)O[C@H]1n1cnc2c(NC3CCCC3)nc(Cl)nc21` came in with a Ki of 1.8 nM.
Still for that read-out and setting: the value for `OC[C@H]1O[C@@H](n2cnc3c(NCc4cccc(I)c4)ncnc32)[C@H](O)[C@@H]1O` was 18.6 nM; that for `CCNC(=O)[C@H]1O[C@@H](n2cnc3c(N)ncnc32)[C@](C)(O)[C@@H]1O` was 142 nM; that for `C[C@]1(O)C(n2cnc3c(N)nc(Cl)nc32)O[C@H](CO)[C@H]1O` (stereo partly drawn) was 533 nM.
On to `C[C@@]1(O)[C@@H](CO)O[C@@H](n2cnc3c(N)ncnc32)[C@@H]1O`, for which the Ki is 49500 nM.
The compound `OC[C@H]1O[C@@H](n2cnc3c(NC4CCCC4)nc(Cl)nc32)[C@H](O)[C@@H]1O` had a Ki of 0.35 nM.
Same read-out and setting: the value for `C[C@H](Cc1ccccc1)Nc1ncnc2c1ncn2[C@@H]1O[C@H](CO)[C@@H](O)[C@@]1(C)O` was 4.7 nM; that for `Nc1nc(Cl)nc2c1ncn2[C@@H]1O[C@H](CO)[C@@H](O)[C@H]1O` was 20.2 nM.
As for `C[C@@]1(O)[C@H](O)[C@@H](CO)O[C@H]1n1cnc2c(NC3CCCC3)ncnc21`, the affinity, expressed as Ki, was 9.5 nM.
On the same count and under the same terms, the value for `C[C@@H](Cc1ccccc1)Nc1ncnc2c1ncn2C1O[C@H](CO)[C@@H](O)[C@@]1(C)O` (stereo partly drawn) was 50 nM.

In the next experiment the target is T3, Adenosine receptor A3 (Rattus norvegicus, UniProt P28647).
T3 sequence (P28647 whole entry): T1 sequence (whole entry)
The experiment is described as follows: Inhibitory activity against Adenosine A3 receptor by inhibiting specific [3H](R)-PIA binding to rat testis membranes. Details: species or system Membrane.
Conditions: not given
For `CNC(=O)[C@H]1OC(n2cnc3c(NCc4cccc(I)c4)ncnc32)[C@](C)(O)[C@@H]1O` (stereo partly drawn), the Ki was found to be 320 nM.
In the case of `C[C@@]1(O)[C@H](O)[C@@H](CO)O[C@H]1n1cnc2c(NC3CCCC3)nc(Cl)nc21`, the Ki worked out at 5000 nM.
Still for that read-out and setting: the value for `CCNC(=O)[C@H]1O[C@@H](n2cnc3c(N)ncnc32)[C@](C)(O)[C@@H]1O` was 550 nM; that for `C[C@@H](Cc1ccccc1)Nc1ncnc2c1ncn2[C@@H]1O[C@H](CO)[C@@H](O)[C@H]1O` [(S)-PIA] was 241 nM; that for `C[C@H](Cc1ccccc1)Nc1ncnc2c1ncn2[C@@H]1O[C@H](CO)[C@@H](O)[C@@]1(C)O` was 1080 nM.
The compound `Nc1nc(Cl)nc2c1ncn2[C@@H]1O[C@H](CO)[C@@H](O)[C@H]1O` returned a Ki of 3200 nM.
For the compound `C[C@@]1(O)[C@H](O)[C@@H](CO)O[C@H]1n1cnc2c(NC3CCCC3)ncnc21`, the Ki is 208 nM.
Compound `C[C@@H](Cc1ccccc1)Nc1ncnc2c1ncn2C1O[C@H](CO)[C@@H](O)[C@@]1(C)O` (stereo partly drawn) came in with a Ki of 10000 nM.
Consider `C[C@H](Cc1ccccc1)Nc1ncnc2c1ncn2[C@@H]1O[C@H](CO)[C@@H](O)[C@H]1O` [(R)-PIA], for which the affinity, expressed as Ki, was 53 nM.

For another experiment, the species on record is Rattus norvegicus. The description is as §2. Format: functional.
Conditions: not given
Turning to `OC[C@H]1O[C@@H](n2cnc3c(NC4CCCCC4)ncnc32)[C@H](O)[C@@H]1O`, the IC50 stood at 1.6 nM.

The species named for another experiment is Rattus norvegicus. Described as §3. Format: functional.
Conditions: not given
Consider `OC[C@H]1O[C@@H](n2cnc3c(NC4CCCCC4)ncnc32)[C@H](O)[C@@H]1O`, for which the Max inhibition was 16.2%.
